Measurements: patent publication US11780845B2 (Relay Therapeutics, Inc., priority 2019, dated 2023)

Each compound was assayed against T1, FGFR2 (Homo sapiens (Human), UniProt P21802) (assay: Biochemical FGFR2 Caliper assay).
T1 sequence (P21802 22-821): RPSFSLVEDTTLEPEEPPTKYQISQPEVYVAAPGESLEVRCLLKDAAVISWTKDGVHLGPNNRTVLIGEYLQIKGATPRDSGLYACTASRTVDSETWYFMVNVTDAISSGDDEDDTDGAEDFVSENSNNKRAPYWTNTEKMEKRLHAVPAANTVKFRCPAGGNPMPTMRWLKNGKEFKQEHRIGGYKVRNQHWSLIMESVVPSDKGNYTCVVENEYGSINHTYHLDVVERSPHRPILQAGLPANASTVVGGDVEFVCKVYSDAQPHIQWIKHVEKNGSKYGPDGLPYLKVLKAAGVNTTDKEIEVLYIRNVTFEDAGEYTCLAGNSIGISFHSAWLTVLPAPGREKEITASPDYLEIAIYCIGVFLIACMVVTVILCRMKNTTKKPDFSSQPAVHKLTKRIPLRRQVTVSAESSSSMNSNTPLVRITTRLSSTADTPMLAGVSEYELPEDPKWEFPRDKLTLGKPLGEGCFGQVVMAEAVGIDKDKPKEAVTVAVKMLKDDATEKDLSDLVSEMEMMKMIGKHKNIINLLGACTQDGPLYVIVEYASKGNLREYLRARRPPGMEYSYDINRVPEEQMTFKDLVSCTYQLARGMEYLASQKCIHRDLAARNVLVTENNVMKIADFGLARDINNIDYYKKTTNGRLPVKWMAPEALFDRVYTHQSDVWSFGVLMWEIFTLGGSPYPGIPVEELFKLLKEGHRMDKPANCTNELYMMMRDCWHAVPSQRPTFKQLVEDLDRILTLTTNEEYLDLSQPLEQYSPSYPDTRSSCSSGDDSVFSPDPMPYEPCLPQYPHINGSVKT

C=CC(=O)Nc1ccc(-c2c(C3=CC[C@H](C(=O)N4CCCC4)CC3)c3c(N)ncnc3n2C)c(C)c1 (single isomer, unassigned) [Example 1101] and CN(C)C/C=C/C(=O)Nc1cccc(-c2c(-c3ccc(C(=O)N4CCCC4)cc3)c3c(N)ncnc3n2C)c1 [Example 1099] cannot be ordered by IC50: < 100 nM for the first, < 100 nM for the second.

C=CC(=O)Nc1ccc(-c2c(-c3ccc(Oc4nccc(C)n4)c(C)c3)c3c(N)ncnc3n2C)c(F)c1 [Example 1075] and C=C(C)C(=O)Nc1cc(Cl)c(-c2c(-c3ccc(Oc4nccc(C)n4)cc3)c3c(N)ncnc3n2C)cc1F [Example 1076] cannot be ordered by IC50: < 100 nM for the first, < 100 nM for the second.

Compared with C#Cc1ncc(-c2c(-c3ccc(Oc4nccc(C)n4)cc3)c3c(C)ncnc3n2C)c(C)n1 [Example 1100], C#Cc1cc(C)c(-c2c(-c3ccc(OC(F)(F)F)cc3)c3c(N)ncnc3n2C)cn1 [Example 1129] is lower in IC50: 100 to 250 nM for the first, < 100 nM for the second.

First: C=C(C)C(=O)Nc1ccc(-c2c(-c3ccc4nn(C)cc4c3)c3c(N)ncnc3n2C)cc1 [Example 1122]
Second: C=C(C)C(=O)Nc1ccc(-c2c(-c3ccc(-n4ccc(C)n4)nc3)c3c(N)ncnc3n2C)cc1 [Example 1146]
The IC50 of the first is lower: < 100 nM for the first, 250 to 1000 nM for the second. The first is the more potent here.

First: C=C(C)C(=O)Nc1cnc(-c2c(-c3ccc(Oc4cccc(C)n4)c(F)c3)c3c(C)ncnc3n2C)c(C)c1 [Example 1139]
Second: C=C(C)C(=O)Nc1ccc(-c2c(-c3ccc(-c4ccn[nH]4)cc3)c3c(N)ncnc3n2C)cc1 [Example 1156]
The IC50 of the first is lower: < 100 nM for the first, 1000 to 100000 nM for the second.

First: C=CC(=O)Nc1ccc(-c2c(-c3ccc4cc[nH]c4c3)c3c(N)ncnc3n2C)cc1 [Example 1147]
Second: C=CC(=O)Nc1ccc(-c2c(-c3cc4ccccc4s3)c3c(N)ncnc3n2C)cc1 [Example 1149]
The IC50 of the first is higher: 1000 to 100000 nM for the first, < 100 nM for the second.

First: C=CC(=O)Nc1ccc(-c2c(-c3cnsc3)c3c(N)ncnc3n2C)cc1 [Example 1150]
Second: C=C(C)C(=O)Nc1ccc(-c2c(C#Cc3cc(OC)cc(OC)c3)c3c(N)ncnc3n2C)cc1 [Example 1152]
The IC50 of the first is lower: < 100 nM for the first, 1000 to 100000 nM for the second.

The compounds below were run against T1, FGFR2 (assay: FGFR2 Biochemical Caliper Assay).
Protocol: Compounds of the present invention were also tested in a FGFR2 Biochemical Caliper Assay. Compounds were prepared in 10 mM DMSO solution and serially diluted into 11 concentrations by 3-fold dilution. […] 5 uL of ATP solution (100 uM) was added to start the reaction and the plate was incubated for 90 minutes, then 70 uL of stopping buffer (0.5M EDTA) was added to terminate the reaction. Each well was analyzed using EZ reader.

C=C(C)C(=O)Nc1ccc(-c2c(-c3cnc(Oc4cccc(C)n4)nc3)c3c(N)ncnc3n2C)cc1 [Example 483] and C=C(C)C(=O)Nc1ccc(-c2c(-c3ccn(Cc4cccc(C)n4)c(=O)c3)c3c(N)ncnc3n2C)cc1 [Example 488] fall in the same range of IC50: 1000 to 100000 nM for the first, 1000 to 100000 nM for the second.

First: C=C(C)C(=O)Nc1ccc(-c2c(-c3ccc(C(=O)N4CCCC4)cc3)c3c(N)ncnc3n2C)c(CN2CCOCC2)c1 [Example 486]
Second: C=C(C)C(=O)Nc1ccc(-c2c(-c3ccc(C(=O)N4CCCC4)cc3)c3c(N)ncnc3n2C)c(CC)c1 [Example 516]
The IC50 of the first is higher: 1000 to 100000 nM for the first, < 100 nM for the second. The second is the more potent here.

C=C(C)C(=O)Nc1ccc(-c2c(-c3ccc(C(=O)N(C)CC4COC4)cc3)c3c(N)ncnc3n2C)c(F)c1 [Example 489] and C=C(C)C(=O)Nc1ccc(-c2c(-c3ccc(C(=O)N4CCCC4)cc3)c3c(N)ncnc3n2C)c(CC)c1 [Example 517] fall in the same range of IC50: 250 to 1000 nM for the first, 250 to 1000 nM for the second.

C=C(C)C(=O)Nc1ccc(-c2c(-c3ccc(Oc4nccc(C)n4)c(OCC)c3)c3c(N)ncnc3n2C)cc1 [Example 491] and C=C(C)C(=O)Nc1ccc(-c2c(-c3ccc(Oc4nccc(C)n4)c(COC)c3)c3c(N)ncnc3n2C)cc1 [Example 501] fall in the same range of IC50: 1000 to 100000 nM for the first, 1000 to 100000 nM for the second.

First: Cn1c(-c2ccc(C#N)nc2)c(-c2ccc(C(=O)N3CCCC3)cc2)c2c(N)ncnc21 [Example 493]
Second: CC(Cl)C(=O)Nc1ccc(-c2c(-c3ccc(C(=O)N4CCCC4)cc3)c3c(N)ncnc3n2C)cc1 (stereo not shown) [Example 561]
The IC50 of the first is higher: 1000 to 100000 nM for the first, 250 to 1000 nM for the second.

First: C=C(C)C(=O)Nc1ccc(-c2c(-c3ccc(Oc4nccc(C)n4)c(N(C)C)c3)c3c(N)ncnc3n2C)cc1 [Example 504]
Second: C=C(C)C(=O)Nc1ccc(-c2c(-c3ccc(Oc4nccc(C)n4)c(F)c3)c3c(N)ncnc3n2C)c(CN(C)C)c1 [Example 555]
The IC50 of the first is higher: 1000 to 100000 nM for the first, < 100 nM for the second.

First: C=C(C)C(=O)Nc1ccc(-c2c(-c3ccc(C(=O)N4CCCC4)cc3)c3c(N)ncnc3n2C)c(C2CC2)c1 [Example 518]
Second: C=C(C)C(=O)Nc1ccc(-c2c(-c3ccc(C(=O)N4CCCC4)cc3Cl)c3c(N)ncnc3n2C)cc1 [Example 587]
The IC50 of the first is lower: < 100 nM for the first, 1000 to 100000 nM for the second.

Compared with C=C(C)C(=O)Nc1ccc(-c2c(-c3ccc(Oc4nccc(C)n4)c(F)c3)c3c(N)ncnc3n2C)c(C(=O)N(C)C)c1 [Example 519], C=C(C)C(=O)Nc1ccc(-c2c(-c3ccc(Oc4nccc(C)n4)c(F)c3)c3c(N)ncnc3n2C2CCOC2)cc1 (stereo not shown) [Example 536] is lower in IC50: 1000 to 100000 nM for the first, < 100 nM for the second.

Cn1c(-c2ccc(NC(=O)C3=CCCC3)cc2)c(-c2ccc(C(=O)N3CCCC3)cc2)c2c(N)ncnc21 [Example 523] and Cn1c(-c2ccc(NC(=O)CC3=CCCC3)cc2)c(-c2ccc(C(=O)N3CCCC3)cc2)c2c(N)ncnc21 [Example 542] fall in the same range of IC50: 1000 to 100000 nM for the first, 1000 to 100000 nM for the second.

Cn1c(-c2ccc(NC(=O)C=C3CCC3)cc2)c(-c2ccc(C(=O)N3CCCC3)cc2)c2c(N)ncnc21 [Example 525] and Cn1c(-c2ccc(NC(=O)C=C3CCCC3)cc2)c(-c2ccc(C(=O)N3CCCC3)cc2)c2c(N)ncnc21 [Example 545] fall in the same range of IC50: 1000 to 100000 nM for the first, 1000 to 100000 nM for the second.

Cn1c(-c2ccc(N3CCC=CC3=O)cc2)c(-c2ccc(C(=O)N3CCCC3)cc2)c2c(N)ncnc21 [Example 540] and Cn1c(-c2ccc(N3CC=CC3=O)cc2)c(-c2ccc(C(=O)N3CCCC3)cc2)c2c(N)ncnc21 [Example 557] fall in the same range of IC50: 1000 to 100000 nM for the first, 1000 to 100000 nM for the second.

First: Cn1c(-c2ccc(N3CCC=CS3(=O)=O)cc2)c(-c2ccc(C(=O)N3CCCC3)cc2)c2c(N)ncnc21 [Example 544]
Second: Cn1c(-c2ccc(N3CC=CS3(=O)=O)cc2)c(-c2ccc(C(=O)N3CCCC3)cc2)c2c(N)ncnc21 [Example 556]
The IC50 of the first is higher: 1000 to 100000 nM for the first, 250 to 1000 nM for the second. The second is the more potent here.

First: C=C(C)C(=O)Nc1ccc(-c2c(-c3ccc(C(=O)N4CC5CC4(CO)C5)cc3)c3c(N)ncnc3n2C)cc1 [Example 547]
Second: C=C(C)C(=O)Nc1ccc(-c2c(-c3ccc(C(=O)N4CC5CC4(C)C5)cc3)c3c(N)ncnc3n2C)cc1 [Example 548]
The IC50 of the first is higher: 250 to 1000 nM for the first, < 100 nM for the second. The second is the more potent here.

First: C=C(C)C(=O)Nc1ccc(-c2c(C3=CCC(Oc4ccn(C)n4)CC3)c3c(N)ncnc3n2C)cc1 (stereo not shown) [Example 551]
Second: C=C(C)C(=O)Nc1ccc(-c2c(C3=CC[C@H](C(=O)N4CC5CC5C4)CC3)c3c(N)ncnc3n2C)cc1 (stereo partly shown) [Example 581]
The IC50 of the first is lower: 250 to 1000 nM for the first, 1000 to 100000 nM for the second.

First: C/C(=C\CN(C)C)C(=O)Nc1ccc(-c2c(-c3ccc(C(=O)N4CCCC4)cc3)c3c(N)ncnc3n2C)cc1 [Example 553]
Second: Cn1c(-c2ccc(NC(=O)C3CO3)cc2)c(-c2ccc(C(=O)N3CCCC3)cc2)c2c(N)ncnc21 (stereo not shown) [Example 586]
The IC50 of the first is higher: 250 to 1000 nM for the first, 100 to 250 nM for the second. The second is the more potent here.

C=C(C)C(=O)Nc1ccc(-c2c([C@H]3CC[C@@H](C(=O)N4CCCC4)CC3)c3c(N)ncnc3n2C)cc1 [Example 577] and C=C(C)C(=O)Nc1ccc(-c2c([C@H]3CC[C@H](C(=O)N4CCCC4)CC3)c3c(N)ncnc3n2C)cc1 [Example 578] fall in the same range of IC50: 1000 to 100000 nM for the first, 1000 to 100000 nM for the second.

C=C(C)C(=O)Nc1ccc(-c2c(-c3ccc(C(=O)N4CCCC4)cc3C(F)F)c3c(N)ncnc3n2C)cc1 [Example 588] and C=C(C)C(=O)Nc1ccc(-c2c(-c3ccc(C(=O)N4CCCC4)cc3C)c3c(N)ncnc3n2C)cc1 [Example 597] fall in the same range of IC50: 1000 to 100000 nM for the first, 1000 to 100000 nM for the second.

C=C(C)C(=O)Nc1ccc(-c2c(-c3ccc(C(=O)N4CC5CC4(C(F)F)C5)cc3)c3c(N)ncnc3n2C)cc1 [Example 595] and C=C(C)C(=O)Nc1ccc(-c2c(-c3ccc(C(=O)N4CCCC4)cn3)c3c(N)ncnc3n2C)cc1 [Example 596] cannot be ordered by IC50: < 100 nM for the first, < 100 nM for the second.

Compared with C=C(C)C(=O)Nc1ccc(-c2c(-c3ccc4c(c3)COC4c3cccc(C)n3)c3c(N)ncnc3n2C)cc1 (stereo not shown) [Example 599], C=CC(=O)N1CCC(c2c(-c3ccc(Oc4cccc(C)n4)c(OC)c3)c3c(N)ncnc3n2C)=CC1C (stereo not shown) [Example 679] is lower in IC50: 100 to 250 nM for the first, < 100 nM for the second. The second is the more potent here.

C=CC(=O)N1CC(c2c(-c3ccc(Oc4ccccc4)cc3)c3c(N)ncnc3n2C)C1 [Example 604] and C=CC(=O)N[C@H]1C[C@H](n2cc(-c3c(-c4ccc(Oc5ccccc5)cc4)c4c(N)ncnc4n3C)cn2)C1 [Example 605] cannot be ordered by IC50: < 100 nM for the first, < 100 nM for the second.

C=CC(=O)N[C@H]1C[C@@H](n2cc(-c3c(-c4ccc(Oc5ccccc5)cc4)c4c(N)ncnc4n3C)cn2)C1 [Example 606] and C=CC(=O)N1CCC(n2cc(-c3c(-c4ccc(Oc5ccccc5)cc4Cl)c4c(N)ncnc4n3C)cn2)CC1 [Example 615] cannot be ordered by IC50: < 100 nM for the first, < 100 nM for the second.

C=CC(=O)N1CCC(n2cc(-c3c(-c4ccc(Cl)c(OC)c4)c4c(N)ncnc4n3C)cn2)CC1 [Example 609] and C=CC(=O)N1CCC(n2cc(-c3c(-c4ccc(F)c(OC)c4)c4c(N)ncnc4n3C)cn2)CC1 [Example 610] fall in the same range of IC50: 250 to 1000 nM for the first, 250 to 1000 nM for the second.

C=CC(=O)N1CCC(n2cc(-c3c(-c4ccccc4OC)c4c(N)ncnc4n3C)cn2)CC1 [Example 611] and C=CC(=O)N1CCC(n2cc(-c3c(-c4cc(OC)c(Cl)cc4Cl)c4c(N)ncnc4n3C)cn2)CC1 [Example 613] fall in the same range of IC50: 1000 to 100000 nM for the first, 1000 to 100000 nM for the second.

First: C=CC(=O)N1CCC(n2cc(-c3c(-c4ccc(Oc5ccccc5)c(OC)c4)c4c(N)ncnc4n3C)cn2)CC1 [Example 612]
Second: C=CC(=O)N1CCC(n2cc(-c3c(-c4cc(OC)c(Cl)cc4F)c4c(N)ncnc4n3C)cn2)CC1 [Example 614]
The IC50 of the first is lower: 100 to 250 nM for the first, 1000 to 100000 nM for the second.

C=CC(=O)N1CCC(n2cc(-c3c(-c4c(Cl)ccc5c4OCO5)c4c(N)ncnc4n3C)cn2)CC1 [Example 616] and C=CC(=O)N1CCC(N2CC(c3c(-c4ccc(Oc5cccc(C)n5)cc4)c4c(N)ncnc4n3C)C2)CC1 [Example 659] fall in the same range of IC50: 1000 to 100000 nM for the first, 1000 to 100000 nM for the second.

First: C=CC(=O)N[C@H]1CC[C@@H](c2c(-c3ccc(Oc4cccc(C)n4)c(OC)c3)c3c(N)ncnc3n2C)CC1 [Example 624]
Second: C=CC(=O)N[C@H]1CC[C@H](c2c(-c3ccc(Oc4cccc(C)n4)c(OC)c3)c3c(N)ncnc3n2C)CC1 [Example 625]
The IC50 of the first is higher: 1000 to 100000 nM for the first, 250 to 1000 nM for the second.

C=CC(=O)N1CCC(N2CC(c3c(-c4ccc(Oc5cccc(C)n5)c(OC)c4)c4c(N)ncnc4n3C)C2)CC1 [Example 658] was tested, and the IC50 was 1000 to 100000 nM.
